From US7531575B2, “Method of modulating cellular activity and agents useful for same” (Eberhard-Karls-Universität Tübingin, priority 2002, dated 2009)

Columns and labels:
Format in all cases: cell-based, murine
iNOS = iNOS activity by Griess assay (NO2 release), IFN-γ-stimulated N9 microglia; settings: N9 cells, IFN-γ 200 u ml, 48 h
Protocol: (§1) Tranilast was a generous gift of Kissei Pharmaceuticals (Nagano, Japan). Murine recombinant IFN-γ was purchased from Boehringer (Mannheim, Germany). Dexamethasone (DEX) was obtained from Sigma (Deisenhofen, Germany). N9 murine microglial cells were a kind gift from P. Ricciardi-Castagnoli (Milano, Italy) (Righi, M., Mori, L., De Libero, G., Sironi, M., Biondi, A., Mantovani, A., Donini, S. D. and Ricciardi-Castagnoli, P. Eur J Immunol 19(8):1443-1448, 1989). The cells were cultured in Dulbecco's modified Eagle's medium (DMEM) supplemented with 10% foetal calf serum (FCS), 2 mM glutamine and penicillin ([…])/streptomycin (100 μg ml), and maintained at 37° C. in an atmosphere of 5% CO2. Viability was assessed by crystal violet staining.
iNOS activity was assessed by the Griess assay as described elsewhere (Rieger, J., Stander, M., Loschmann, P. A., Heneka, M., Dichgans, J., Klockgether, T. and Weller, M., Oncogene, 17:2323-2332, 1998). Briefly, conditioned supernatant (100 μl) was incubated with an equal volume of 1% sulphanilamide/0.1% naphthyl ethylene diamine dihydrochloride/2.5% H3PO4 (Griess reagent) (Green, L. C., Wagner, D. A., Glogowski, J., Skipper, P. I., Wishnok, J. S, and Tannenbaum, S. R., Anal. Biochem., 126:131-138, 1982), incubated for 5 min at room temperature, and the absorbance at […] determined. Solutions of NaNO2 diluted in DMEM served as standards. The absorbance readings resulting from DMEM alone were subtracted from the sample values. Cell density was assessed using crystal violet staining to control for differences in cell proliferation. iNOS activity is thus expressed here as NO2 accumulated per 48 h per 10^5 cells.

IκBα = experiment: phospho-IκBα immunoblot, IFN-γ-stimulated N9 microglia; settings: N9 cells, IFN-γ 200 u ml, tranilast 30-300 μM, 4 h preincubation
Protocol: as §1
For the preparation of whole cell lysates, the cells were rinsed in phosphate-buffered saline (PBS), harvested, centrifuged at 1200×g, lysed in 0.1 M TRIS-HCl (pH 7.2) containing 0.1% NP40, 0.1 mM EDTA and 5 μg ml PMSF for 40 min on ice, and centrifuged at 10,000×g for 10 min. Protein concentration was determined using Biorad reagents with photometric analysis. Proteins (20 μg lane) were separated by 10-12% SDS-PAGE and electroblotted on nitrocellulose. qual protein loading was controlled by Ponceau S staining. […]

MARCKS = experiment: phospho-MARCKS immunoblot in N9 microglia; settings: N9 cells, co-exposed to TNL (pre-incubation 1 hr)
From the text: (§2) TNL was a generous gift of Kissei Pharmaceuticals, LPC (Escherichia coli, 0127:BS), phorbol 12-myristate 13-acetate (PMA) and dexamethasone (DEX) were obtained from Sigma, BAY 11-7082 (BAY), NF-κB SN50 inhibitory peptide (SN50), GF 109203X (GFX) and rottlerin (ROT) were purchased from Biomol. PD098059 (PD) was obtained from Calbiochem. Purified murine interferon-γ (IFN-γ) was purchased from Roche Diagnostics. N9 murine microglial cells were a kind gift from P. Ricciardi-Castagnoli (Righi, M. et al. 1989 supra). Cells were cultured in Dulbecco's modified Eagle's medium (DMEM) supplemented with 10% fetal calf serum (FCS), 2 mM glutamine, penicillin (100 unit/mL) and streptomycin (100 μg/mL) and maintained at 37° in an atmosphere of 5% CO2. Viability was assessed by crystal violet staining.
(§3) For the preparation of whole cell lysates, the cells were lysed in 0.1 M Tris-HCl (pH 7.2) containing 0.1% NP40, 0.1 mM EDTA and 5 μg/mL phenylmethylsulphonyl fluoride. Twenty micrograms protein was separated by 10-12% SDS-PAGE and electroblotted on nitrocellulose membrane. Equal loading was controlled by Ponceau S staining. […]

inhibitory-κB (I-κB) = experiment: phospho-IκBα immunoblot, LPS-stimulated N9 microglia; settings: N9 cells, 1 hr, TNL pre-incubation 1 hr
From the text: as §2, §3

NF-κB = NF-κB reporter assay, IFN-γ-stimulated N9 microglia; settings: N9 cells, IFN-γ 200 u ml, tranilast 30-300 μM, 4 h preincubation
Protocol: N9 murine microglial cells were seeded in a 96-well plate (8×10^3 well) and allowed to adhere for 24 h. The cells were transfected with an NK-κB cis-reporter gene plasmid (PathDetect* no. 219077, Stratagene) which encodes firefly luciferase in a NF-κB-dependent-manner. For each transfection, 0.2 μg DNA and 0.6 μl FuGene (Roche, Mannheim, Germany) were used. The cells were either co-transfected with 0.02 μg of the pFC-Mekk positive control plasmid, included in the NF-κB cis-reporting system from Stratagene, or with the pcDNA-3 plasmid, to maintain a constant amount of total DNA. In order to assess the unspecific background, a control transfection with pcDNA-3 only was included in all experiments. After 24 h the cells were washed twice with PBS (0.12 M NaCl, 0.01 M NaH2PO4×H2O, 0.031 M K2HPO4) and lysed using 40 μl well of Cell Lysis Buffer (mM):tricine pH 7.8 40, NaCl 50, EDTA 2, MgSO4 1, DTT 5, 1% Triton* X-100, all from Sigma. To optimize lysis, a freeze-thaw cycle was performed. Then the lysate was transferred to a LumiNunc™ plate (Nunc, Roskilde, Denmark). Luciferase assay reagent (100 μl) containing (mM): tricine pH 7.8 40, MgSO4 10, EDTA 0.5, DTT 10, coenzyme A 0.5 and beetle luciferin 0.5, ([…]), (all from Sigma) were added and luminescence was measured in a LumimatPlus (EG&G Berthold, Pforzheim, Germany). […]

COc1ccc(/C=C/C(=O)Nc2ccccc2C(=O)O)cc1OC [tranilast, 2-[[3-(3,4-dimethoxyphenyl)-1-oxo-2-propenyl]amino]benzoic acid]
inhibition of NO release (iNOS; concentration series): concentration-dependent inhibition
reduction of NO release (NO2, Griess assay) (iNOS; tranilast 300 μM): 65%
IκB phosphorylation in response to IFN-γ (IκBα): concentration-dependent suppression
MARCKS phosphorylation (MARCKS): inhibited
LPS-mediated phosphorylation of I-κB (inhibitory-κB (I-κB)): did not suppress
NF-κB reporter gene activity in response to IFN-γ (NF-κB): concentration-dependent suppression
